A short description of this data set: Compatibility of artesunate and ferroquine combined within one and the same tablet. The class given is physicochemical. As to conditions: color of artesunate goes from white to brown. An excerpt:
However, artesunate and ferroquine are strongly incompatible if the two active ingredients are combined within one and the same tablet.

Results on one compound are retold here after US20120237600A1, “MULTILAYER PHARMACEUTICAL COMPOSITION THAT CAN BE DISPERSED IN WATER AND WHICH CONTAINS A COMBINATION OF ANTIMALARIAL AGENTS” (SANOFI, priority 2009, published 2012).

`C[C@H]1[C@H](OC(=O)CCC(=O)O)O[C@@H]2O[C@@]3(C)CC[C@H]4[C@H](C)CC[C@@H]1[C@@]24OO3` [artesunate, Artesunate]: the “stability of artesunate when combined with ferroquine within the same tablet” value is reported as “rapid increase in the level of artesunate degradation products”.
